Measured values as given in patent US11407729B2, “Quinoline and quinazoline compounds and methods of use thereof” (Stingray Therapeutics, Inc., priority 2019, dated 2022).

Key:
ENPP1 protein [1] = target: T1, ENPP1 protein (Homo sapiens, UniProt P22413); experiment: Thermal Shift Binding Assay; conditions: 1 μg of ENPP1 protein incubated with 100 μM of drug for 5 minutes; for ΔTm at 100 µM: read-out: Thermal Shift (Δ TmD)
T1 sequence (P22413 1-925): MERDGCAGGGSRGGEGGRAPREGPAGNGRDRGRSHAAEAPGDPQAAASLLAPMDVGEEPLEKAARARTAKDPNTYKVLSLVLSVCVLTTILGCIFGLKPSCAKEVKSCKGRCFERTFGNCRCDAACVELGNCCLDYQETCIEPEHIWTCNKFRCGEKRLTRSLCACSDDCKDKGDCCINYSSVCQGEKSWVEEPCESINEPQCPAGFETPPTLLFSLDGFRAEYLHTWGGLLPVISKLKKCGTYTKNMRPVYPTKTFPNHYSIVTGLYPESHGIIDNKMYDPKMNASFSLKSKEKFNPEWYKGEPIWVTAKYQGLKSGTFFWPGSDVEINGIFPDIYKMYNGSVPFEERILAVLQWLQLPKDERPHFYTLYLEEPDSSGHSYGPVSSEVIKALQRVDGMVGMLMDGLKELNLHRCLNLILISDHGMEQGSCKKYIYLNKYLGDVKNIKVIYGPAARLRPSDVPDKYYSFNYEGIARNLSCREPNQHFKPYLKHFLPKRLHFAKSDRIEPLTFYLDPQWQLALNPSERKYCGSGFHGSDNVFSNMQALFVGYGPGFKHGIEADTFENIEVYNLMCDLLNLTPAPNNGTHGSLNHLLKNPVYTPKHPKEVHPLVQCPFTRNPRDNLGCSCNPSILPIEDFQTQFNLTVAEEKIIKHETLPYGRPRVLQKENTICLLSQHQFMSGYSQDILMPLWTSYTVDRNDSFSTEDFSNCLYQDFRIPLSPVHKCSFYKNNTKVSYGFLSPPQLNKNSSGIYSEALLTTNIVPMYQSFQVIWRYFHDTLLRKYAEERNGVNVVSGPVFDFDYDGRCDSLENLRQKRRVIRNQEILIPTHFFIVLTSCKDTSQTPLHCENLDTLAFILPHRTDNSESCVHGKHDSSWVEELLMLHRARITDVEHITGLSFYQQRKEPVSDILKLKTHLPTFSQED
Procedure: Thermal Shift Binding Assay.
The Thermal Shift Assays were implemented to study thermal stabilization of ENPP1 proteins upon ENPP1 inhibitor or ligand binding. These assays were used extensively on purified ENPP1 protein. In a 384-well plate, 1 μg of ENPP1 protein was incubated with 100 μM of the corresponding drug for 5 minutes. Each well was exposed to increasing temperatures to determine an unfolding temperature of the protein. […] 2′3′ cGAMP was used as a positive control, as it is a substrate of ENPP1.

ENPP1 protein [2] = target: T1, ENPP1 protein; experiment: ENPP1 Inhibition Assay; type: biochemical; design: purchased R&D 6136-EN-010; conditions: substrate Thymidine 5′-monophosphate p-nitrophenol ester; 37° C. for 45 minutes; absorbance at 405 nm
Procedure: 1. ENPP1 Inhibition Assay
An eight point serial dilution of drugs was prepared in 10× in assay buffer with the final assay concentrations starting at 10 μM, 3 μM, 1 μM, 0.3 μM . . . 0 μM. A dilution of DMSO was included as a control. The assay plate was set up as follows with each well in duplicate: 81 μL assay buffer+10 μL ENPP1 inhibitor or DMSO+5 μL Substrate+4 μL Enzyme. Both the enzyme and substrate were added to opposite sides of the well to ensure that there was no interaction until all wells had both components. The plate was then centrifuged gently for 10 seconds, followed by an incubation at 37° C. for 45 minutes.
IC50 values are determined using GraphPad Prism 5 software. The data were entered as an X-Y plot into the software as percent inhibition for each concentration of the drug. The concentration values of the drug were log transformed and the nonlinear regression was carried out using the “sigmoidal dose-response (variable slope)” option within the GraphPad software to model the data and calculate IC50 values.

Molecule	ΔTm at 100 µM (ENPP1 protein [1]) [°C]	IC50 (ENPP1 protein [2]) [nM]	Thermal Shift (Δ TmD) (ENPP1 protein [1])
COc1ccc(OC)c(S(=O)(=O)Nc2cnc3ccccc3c2)c1 [Compound I-06, 2,5-dimethoxy-N-(quinolin-3-yl)benzenesulfonamide]	1.6	5150	
COc1cc2nccc(N3CCC(C(C)CNS(N)(=O)=O)CC3)c2cc1N1CCOCC1 (stereo not shown) [Compound I-12]	3.6	835	
CCC(CNS(N)(=O)=O)C1CCN(c2ccnc3cc(OC)c(OC)cc23)CC1 (stereo not shown) [Compound I-13, N-(2-(1-(6,7-dimethoxyquinolin-4-yl)piperidin-4-yl)butyl)sulfuricdiamide]	4	4.55	
N-(2-(1-(6,7-dimethoxyquinazolin-4-yl)piperidin-4-yl)propyl)sulfonamide urea [Compound I-01]		2.79	5.5
N-(2-(1-(6,7-dimethoxyquinolin-4-yl)piperidin-4-yl)propyl)sulfamoylcarbamate [Compound I-02]		5.95	5.0
